The test system of one data set is 786-0. Put plainly: NCI screening panel (SRB). It counts as cell-based. To be noted: Homo sapiens, 786-0 (Renal), 48 h; for CC50: read-out: LC50 (the source's name).
The target of the next data set is EGFR (T790M) (Homo sapiens, UniProt P00533, T790M). Put plainly: Kinase assays, selectivity panel (qPCR). To be noted: read-out: % Control @ 300 nM.
The target of data set [1] is EGFR (L747-S752del, P753S) (Homo sapiens, UniProt P00533, DEL747-752/P753S). Put plainly: Kinase assays, selectivity panel (qPCR). To be noted: read-out: % Control @ 300 nM. In general terms: Real-time PCR tracks product formation cycle by cycle.
The target of another data set is EGFR (G719S) (Homo sapiens, UniProt P00533, G719S). Put plainly: Kinase assays, selectivity panel (qPCR). To be noted: read-out: % Control @ 300 nM.
Another data set deals with MCF7. Put plainly: NCI screening panel (SRB). It is filed as cell-based. To be noted: Homo sapiens, MCF7 (Breast), 48 h; for CC50: read-out: LC50 (the source's name).
The subject of data set [2] is EGFR (L747-T751del, Sins). In words: Kinase assays, selectivity panel (qPCR).
For another data set, the system named is HS578T. In words: NCI screening panel (SRB). To be noted: Homo sapiens, Hs-578T, HS578T (Breast), 48 h; for CC50: read-out: LC50 (the source's name). It is filed as cell-based.
The nature of a further data set: Microsomal stability. It counts as in vitro ADME, mouse (CD-1, male). To be noted: Mouse liver microsomes with NADPH; for Remaining Percentage (%) after 60 min: 1 μM; for half-life at 1 μM / microsomal CLint at 1 μM: male, CD-1. Here is the method: Working stocks were initially diluted to a concentration of 40.0 μM in 0.1 M potassium phosphate buffer before addition to the reaction vials. Pooled mouse (CD-1, male) or human (50 donors) liver microsomes were utilized at a final concentration of 0.5 mg/ml. […] Reactions were carried out at 37° C. in a shaker, and the final concentration of DMSO was kept constant at 0.01%. The final volume for each reaction was 100 μL, which includes the addition of an NADPH-Regeneration solution (NRS) mix. This NRS mix is comprised of glucose 6-phosphate dehydrogenase (0.4 U/mL), NADP+(1.3 mM), MgCl2 (3.3 mM), and glucose 6-phosphate (3.3 mM) in assay mixtures. […] Samples were then centrifuged at 4,000 rpm for 10 minutes to remove debris and precipitated protein. Approximately 150 μL of supernatant was subsequently transferred to a new 96 well microplate for LC/MS analysis.
Narrow-window mass extraction LC/MS analysis was performed for all samples using a Waters Xevo quadrupole time-of-flight (QTof) mass spectrometer and an ACQUITY UPLC system, to determine relative peak areas of parent compound.
(In general: Liver microsomes are a subcellular fraction often used to study metabolism.)

For the next data set, the system named is NCI-H23. In words: NCI screening panel (SRB). To be noted: Homo sapiens, NCI-H23 (NSCLC), 48 h; for CC50: read-out: LC50 (the source's name). It counts as cell-based.
Another data set deals with SK-MEL-5. Put plainly: NCI screening panel (SRB). It is filed as cell-based. To be noted: Homo sapiens, SK-MEL-5 (Melanoma), 48 h; for CC50: read-out: LC50 (the source's name).
The subject of a further data set is HT29. In words: NCI screening panel (SRB). It is filed as cell-based. To be noted: Homo sapiens, HT-29, HT29 (Colon), 48 h; for CC50: read-out: LC50 (the source's name).
A further data set deals with SF-295. In words: NCI screening panel (SRB). It counts as cell-based. To be noted: Homo sapiens, SF-295 (CNS), 48 h; for CC50: read-out: LC50 (the source's name).
A further data set relates to CCRF-CEM. In words: NCI screening panel (SRB). It is filed as cell-based. To be noted: Homo sapiens, CCRF-CEM (Leukemia), 48 h; for CC50: read-out: LC50 (the source's name).
The nature of data set [3]: Chemical stability in simulated intestinal fluid. To be noted: 37° C. It counts as physicochemical. As for the experimental part: For SIF: Dissolve 6.8 g of KH2PO4 into about 500 mL ultrapure water and adjust the solution to a pH 6.8 with 0.1 M NaOH. Dissolve 10 g of trypsin into ultrapure water. Then the two solutions are mixed well and diluted with ultrapure water to 1000 mL.
The working solutions of test compound and control compound chlorambucil are prepared in DMSO at the concentration of 500 μM.
Place 2 μL of working solution of each sample in order into their proper 96-well rack. Add 198 μL of pre-incubated PBS pH 7.4 or simulated intestinal fluid into each vial of the cap-less Sample plate to achieve a final concentration of […]. The assay is performed in duplicate. Seal using a molded PTFE/Silicone plug. Then transfer the Sample plate to the Eppendorf Thermomixer Comfort plate shaker and shake at 37° C. at 1100 RPM. Take one of the glass vials at designated time points including 0, 30, 60, 120 and 240 min. For each time point, the initiation of the reaction is staggered so all time points are terminated with 1000 μL of cold quench solution (acetonitrile containing internal standards (IS, 200 nM Labetalol, 100 nM Alprazolam and 2 μM Ketoprofen) at the same time. Vortex for 1 minute. Centrifuge the samples in plate at 3,220 g for 5 minutes at 4° C. Transfer 100 μL of the supernatant to a new plate. The supernatant may be diluted with 100 μL or 200 μL water according to the LC/MS signal response and peak shape. Mix well and analyze samples using LC/MS/MS.

Data set [4] is described as follows: Log D determination (1-octanol/buffer). It counts as physicochemical. As for the experimental part: Prepare the stock solutions of test compounds and control compound progesterone in DMSO at the concentration of 30 mM. If test compound could not be dissolved completely, make a 10 mM stock solution with DMSO.
Place 5 μL of stock solution (30 mM) or 15 μL of stock solution (10 mM) of each sample in order into their proper 96-well rack. […] Add one stir stick to each vial and seal using a molded PTFE/Silicone plug. […] After completion of incubation, remove the stir sticks using a big magnet. Then centrifuge the samples at 25° C. at 20,000 g for 20 minutes to separate the phases, and use pipette and syringe to remove the upper (1-octanol) and lower (buffer) phases to the empty tubes, respectively. Take aliquots of 5 μL from upper phases followed by addition of 495 μL of methanol. Vortex for 1 minute, and then take aliquots of 50 μL from the diluent followed by addition of 450 μL of methanol. And take aliquots of 50 μL from lower phases followed by addition of 450 μL of methanol. A certain proportion of ultrapure water may be used according to the peak shape. The dilution factor may be changed according to the Log D value and the LC/MS signal response.

The structures appear in SMILES notation. Some results are limits rather than exact numbers.

Chain of EGFR (T790M) (P00533 25-1210 T790M): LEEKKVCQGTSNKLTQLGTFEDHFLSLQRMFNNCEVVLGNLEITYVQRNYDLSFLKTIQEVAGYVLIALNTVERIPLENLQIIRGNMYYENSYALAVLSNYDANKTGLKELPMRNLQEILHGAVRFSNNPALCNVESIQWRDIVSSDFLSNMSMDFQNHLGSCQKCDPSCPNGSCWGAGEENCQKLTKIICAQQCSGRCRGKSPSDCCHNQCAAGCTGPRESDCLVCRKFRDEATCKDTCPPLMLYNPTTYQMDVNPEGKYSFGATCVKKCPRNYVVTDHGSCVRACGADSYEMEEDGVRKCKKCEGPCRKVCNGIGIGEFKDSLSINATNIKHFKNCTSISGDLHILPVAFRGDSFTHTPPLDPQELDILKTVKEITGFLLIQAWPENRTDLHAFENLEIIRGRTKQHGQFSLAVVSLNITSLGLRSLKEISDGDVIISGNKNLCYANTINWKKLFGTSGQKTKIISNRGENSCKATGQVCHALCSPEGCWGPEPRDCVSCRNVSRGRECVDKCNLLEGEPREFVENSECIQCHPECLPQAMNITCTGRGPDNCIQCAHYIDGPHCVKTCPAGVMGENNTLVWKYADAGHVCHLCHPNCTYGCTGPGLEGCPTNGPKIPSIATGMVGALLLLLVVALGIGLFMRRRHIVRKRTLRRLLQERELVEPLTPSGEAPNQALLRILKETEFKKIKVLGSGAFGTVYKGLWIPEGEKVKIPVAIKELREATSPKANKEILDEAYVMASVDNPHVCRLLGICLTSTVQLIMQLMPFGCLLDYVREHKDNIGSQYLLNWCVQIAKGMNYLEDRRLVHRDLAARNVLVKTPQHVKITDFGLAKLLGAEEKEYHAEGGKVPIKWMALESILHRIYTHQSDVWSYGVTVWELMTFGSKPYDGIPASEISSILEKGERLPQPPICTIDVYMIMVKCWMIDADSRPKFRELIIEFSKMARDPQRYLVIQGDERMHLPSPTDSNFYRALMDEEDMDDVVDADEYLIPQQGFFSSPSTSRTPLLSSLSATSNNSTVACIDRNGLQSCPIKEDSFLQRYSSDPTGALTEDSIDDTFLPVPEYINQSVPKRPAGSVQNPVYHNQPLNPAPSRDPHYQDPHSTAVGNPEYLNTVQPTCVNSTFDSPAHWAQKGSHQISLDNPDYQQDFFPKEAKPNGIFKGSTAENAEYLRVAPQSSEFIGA
Chain of EGFR (L747-S752del, P753S) (P00533 with tags, fused parts or gaps DEL747-752/P753S): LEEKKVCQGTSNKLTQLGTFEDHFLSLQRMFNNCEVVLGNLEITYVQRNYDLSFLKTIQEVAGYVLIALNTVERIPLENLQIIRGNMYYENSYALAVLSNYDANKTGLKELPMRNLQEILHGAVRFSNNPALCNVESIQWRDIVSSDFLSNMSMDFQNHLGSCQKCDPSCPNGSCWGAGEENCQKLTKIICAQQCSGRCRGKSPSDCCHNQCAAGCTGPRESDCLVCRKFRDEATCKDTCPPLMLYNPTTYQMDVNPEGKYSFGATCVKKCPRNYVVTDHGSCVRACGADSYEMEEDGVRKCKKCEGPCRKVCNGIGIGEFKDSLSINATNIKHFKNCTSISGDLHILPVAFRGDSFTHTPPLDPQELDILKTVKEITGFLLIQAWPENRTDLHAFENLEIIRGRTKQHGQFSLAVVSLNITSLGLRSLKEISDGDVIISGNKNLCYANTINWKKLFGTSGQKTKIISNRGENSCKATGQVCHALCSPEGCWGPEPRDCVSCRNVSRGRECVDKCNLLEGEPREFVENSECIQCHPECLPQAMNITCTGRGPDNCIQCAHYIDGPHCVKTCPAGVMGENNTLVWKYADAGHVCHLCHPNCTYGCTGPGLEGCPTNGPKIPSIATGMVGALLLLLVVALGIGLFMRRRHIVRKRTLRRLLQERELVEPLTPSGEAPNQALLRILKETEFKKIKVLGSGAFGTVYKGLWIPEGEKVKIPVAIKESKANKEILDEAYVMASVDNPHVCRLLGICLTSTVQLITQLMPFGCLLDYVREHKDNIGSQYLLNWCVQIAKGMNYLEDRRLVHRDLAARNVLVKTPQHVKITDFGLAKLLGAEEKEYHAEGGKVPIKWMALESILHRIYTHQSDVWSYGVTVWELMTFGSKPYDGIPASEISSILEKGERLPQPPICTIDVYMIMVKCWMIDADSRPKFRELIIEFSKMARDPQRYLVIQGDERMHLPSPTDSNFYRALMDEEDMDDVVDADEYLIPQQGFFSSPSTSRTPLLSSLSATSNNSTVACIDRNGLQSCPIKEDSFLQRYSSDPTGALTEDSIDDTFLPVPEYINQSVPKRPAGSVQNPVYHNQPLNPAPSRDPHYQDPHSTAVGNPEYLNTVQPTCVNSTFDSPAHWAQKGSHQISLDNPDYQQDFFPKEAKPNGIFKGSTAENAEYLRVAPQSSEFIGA
Chain of EGFR (G719S) (P00533 25-1210 G719S): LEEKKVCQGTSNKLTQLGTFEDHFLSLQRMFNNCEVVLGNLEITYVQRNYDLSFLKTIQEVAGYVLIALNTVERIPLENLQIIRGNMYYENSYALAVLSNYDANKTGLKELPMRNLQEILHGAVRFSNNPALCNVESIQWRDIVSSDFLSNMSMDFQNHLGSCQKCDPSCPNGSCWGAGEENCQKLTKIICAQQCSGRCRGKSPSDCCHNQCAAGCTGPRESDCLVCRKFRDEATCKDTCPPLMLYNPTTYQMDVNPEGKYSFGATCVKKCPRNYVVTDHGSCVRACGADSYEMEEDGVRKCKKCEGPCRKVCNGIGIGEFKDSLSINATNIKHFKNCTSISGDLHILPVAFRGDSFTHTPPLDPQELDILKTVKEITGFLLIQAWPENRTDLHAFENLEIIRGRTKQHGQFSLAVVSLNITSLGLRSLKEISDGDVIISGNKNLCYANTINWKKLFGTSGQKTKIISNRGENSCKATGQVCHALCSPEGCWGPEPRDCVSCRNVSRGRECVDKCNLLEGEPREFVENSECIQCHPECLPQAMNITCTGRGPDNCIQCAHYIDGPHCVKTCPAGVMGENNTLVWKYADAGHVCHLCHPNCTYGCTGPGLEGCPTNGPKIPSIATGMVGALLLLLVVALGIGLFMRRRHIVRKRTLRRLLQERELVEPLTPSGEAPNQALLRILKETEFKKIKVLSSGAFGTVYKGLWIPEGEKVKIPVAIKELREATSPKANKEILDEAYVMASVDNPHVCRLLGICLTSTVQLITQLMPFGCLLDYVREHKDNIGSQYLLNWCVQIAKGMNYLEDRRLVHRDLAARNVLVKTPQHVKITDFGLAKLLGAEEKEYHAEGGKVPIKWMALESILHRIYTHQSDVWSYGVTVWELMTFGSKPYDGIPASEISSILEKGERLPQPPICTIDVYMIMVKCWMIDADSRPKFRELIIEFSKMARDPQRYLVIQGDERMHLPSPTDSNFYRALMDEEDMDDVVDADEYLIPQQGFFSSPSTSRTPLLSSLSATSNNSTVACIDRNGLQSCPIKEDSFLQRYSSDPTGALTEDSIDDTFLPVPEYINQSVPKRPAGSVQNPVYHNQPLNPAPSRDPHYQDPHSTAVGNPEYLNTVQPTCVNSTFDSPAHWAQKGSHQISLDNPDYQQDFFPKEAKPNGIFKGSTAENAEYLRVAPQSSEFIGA

As usually defined, the GI50 is the concentration that inhibits growth by half. By half-life is commonly meant the time needed for the level to fall by half in the phase considered. The microsomal CLint is the rate of metabolic loss divided by the concentration. A higher microsomal CLint goes with rapid turnover. As for `CN(C)C/C=C/C(=O)Nc1cc2c(Nc3ccc(F)c(Cl)c3F)ncnc2cc1OCCOC(F)F.O=C(O)/C=C\C(=O)O.O=C(O)/C=C\C(=O)O` [Example I-9-MA, (E)-N-[4-(3-chloro-2,4-difluoro-anilino)-7-[2-(difluoromethoxy)ethoxy]quinazolin-6-yl]-4-(dimethylamino)but-2-enamide di-maleic acid salt], the GI50 in the data set with 786-0 is 248 nM; in the data set on MCF7, 1400 nM; in the data set with HS578T, 1240 nM; with NCI-H23, 1380 nM; in the data set with SK-MEL-5, 1650 nM; with HT29, 383 nM. In addition, the 50% growth inhibitory concentration (GI50) in the data set on SF-295 worked out at 2050 nM; with CCRF-CEM it was 2470 nM. The CC50 with 786-0 is 26600 nM; in the data set on MCF7, 57800 nM; with HS578T, greater than 100000 nM; with NCI-H23 it was 15400 nM; in the data set on SK-MEL-5 it was 7390 nM; with HT29 it was 62600 nM. In addition, the CC50 was 33000 nM with SF-295 and greater than 100000 nM in the data set with CCRF-CEM. In addition, the remaining activity at 0.3 µM at EGFR (T790M) stood at 0.1%; in [1] it was 2.8%; at EGFR (G719S), 0.15%. In addition, in data set [2], the “% Control @ 300 nM” value amounted to 8.6%. In addition, the “Remaining Percentage (%) after 60 min” value in “Microsomal stability” was 30.53%. Also, the half-life at 1 μM in the data set “Microsomal stability” was determined as 35.2 min. Besides, in the data set “Microsomal stability”, the microsomal CLint at 1 μM came out at 39.4 µL/min/mg.

With `O=C(/C=C/CN1CCCCC1)Nc1cc2c(Nc3ccc(F)c(Cl)c3F)ncnc2cc1OCCOC(F)F.O=C(O)/C=C\C(=O)O.O=C(O)/C=C\C(=O)O` [Example I-10-MA, (E)-N-[4-(3-chloro-2,4-difluoro-anilino)-7-[2-(difluoromethoxy)ethoxy]quinazolin-6-yl]-4-(1-piperidyl)but-2-enamide di-maleic acid salt], the GI50 was 929 nM with 786-0; 1840 nM with MCF7; 1410 nM in the data set with HS578T; 2090 nM with NCI-H23; 1630 nM in the data set on SK-MEL-5; 1140 nM in the data set on HT29. The concentration for 50% growth inhibition (GI50) with SF-295 was determined as 1910 nM; in the data set on CCRF-CEM, 2270 nM. Besides, the CC50 in the data set with 786-0 is greater than 100000 nM; in the data set with MCF7, 59800 nM; in the data set with HS578T it was greater than 100000 nM; in the data set on NCI-H23 it was greater than 100000 nM; with SK-MEL-5 it was 6250 nM; with HT29, 51400 nM. For the same molecule, the figures for the CC50 in the data set on SF-295 and in the data set on CCRF-CEM were 16000 nM and greater than 100000 nM, respectively. The values for the remaining activity at 0.3 µM (on EGFR (T790M); in [1]; on EGFR (G719S)) were 0.75%, 2.5% and 0%, respectively. The “% Control @ 300 nM” value in [2] was determined as 0%. Moreover, the “Remaining Percentage (%) after 60 min” value in the data set “Microsomal stability” amounted to 48.95%. Also, in the data set “Microsomal stability”, the half-life at 1 μM is 57.8 min. In addition, the microsomal CLint at 1 μM in the data set “Microsomal stability” worked out at 24 µL/min/mg.

Usually logD stands for the decadic logarithm of the distribution of all forms, ionised or not, between an organic phase and buffer at a given pH. A low value points to lower lipophilicity. `CN(C)C/C=C/C(=O)Nc1cc2c(Nc3cccc(Cl)c3F)ncnc2cc1OCCOC(F)F.O=C(O)/C=C\C(=O)O` [Example I-5-MA, (E)-N-[4-(3-chloro-2-fluoro-anilino)-7-[2-(difluoromethoxy)ethoxy]quinazolin-6-yl]-4-(dimethylamino)but-2-enamide dimaleic acid salt]: the “Remaining Percentage (%) in Simulated Intestinal Fluid” value is listed as 97.51% in data set [3] (120 min) and 91.51% in [3] (240 min). Besides, the results for the logD in data set [4] (pH 2.0) and in data set [4] (pH 7.4) were -2.17 and 3.2, respectively.

`CN(C)C/C=C/C(=O)Nc1cc2c(Nc3ccc(F)c(Cl)c3)ncnc2cc1O[C@H]1CCOC1` [Afatinib, reference compound]: the “Remaining Percentage (%) in Simulated Intestinal Fluid” value was 104.51% in [3] (120 min) and 104.31% in data set [3] (240 min). Further, the logD is -2.46 in data set [4] (pH 2.0) and 3.18 in data set [4] (pH 7.4).

Values taken from patent US20190016689A1, “NOVEL FLUORINATED QUINAZOLINE DERIVATIVES AS EGFR INHIBITORS” (TRILLIUM THERAPEUTICS INC., priority 2016, published 2019).
